Earlier results as cited in US9657007B2, “Substituted aminopyrimidine compounds and methods of use” (Calitor Sciences, LLC, priority 2013, dated 2017).

Assays:
PI3Kδ = details: potency range in words
[1] = test system: murine model of asthma using ovalbumin-induced airway inflammation
[2] = test system: mouse model of rheumatoid arthritis; details: in vivo
[3] = test system: model of systemic lupus erythematosis; details: in vivo

| Compound | inhibits PI3Kδ (PI3Kδ) | activity against any protein kinases tested (protein kinases) | inflammation and disease in a murine model of asthma [1] | efficacy in a mouse model of rheumatoid arthritis [2] | onset of disease in a model of systemic lupus erythematosis [3] |
| --- | --- | --- | --- | --- | --- |
| Cc1ccccc1-n1c(Cn2cnc3c(N)ncnc32)nc2cccc(C)c2c1=O [IC87114] | high nanomolar range (triple digit) | no activity | significantly ameliorate inflammation and disease |  |  |
| O=C1NC(=O)/C(=C\c2ccc3nccnc3c2)S1 [AS 605240] |  |  |  | efficacious | delay onset of disease |
